From patent publication US9701680B2, “Pyrimidine and pyridine compounds and their usage” (HUTCHISON MEDIPHARMA LIMITED, priority 2013, dated 2017)
pIC50: −log10 of the molar value. Like-named read-outs stand apart in the source and are kept apart here.

Experiments:
[1] = biological target: Recombinant human FGFR2 (Homo sapiens, UniProt P21802); assay: Transcreener Kinase Assay of FGFR2; type: biochemical
Protocol: Example 24: Transcreener Kinase Assay of FGFR2
• 1. […] Prepare Solution • Test compounds were solved in DMSO and were diluted with assay buffer to 5 folds of final concentration keeping the DMSO concentration at 5%. Further dilution are needed to make final concentrations are at 1, 0.33, 0.11, 0.037, 0.012, 0.004, 0.0014, 0.0005 μM; (the final concentration of DMSO is 1%). • Enzyme/Substrate stock Preparation: Recombinant human FGFR2 and Poly E4Y are both diluted in assay buffer. The final concentration is 0.3 ng/μL for FGFR2 and 62.5 ng/μL for Poly E4Y. The mixture is being kept in ice before use; • Prepare ATP Diluents, 10 mM ATP is diluted in assay buffer, the final concentration is 25 μM; • Prepare ADP Diluents: diluted ADP (500 μM) in assay buffer, the final concentration is 25 μM; • Prepare ATP standard curve stock as following:
• 3. Enzymatic Reaction • In a 96-well plate, add 5 μL of deluted solution of test compound or control solution. (positive control: 5 μL of 5% DMSO; negative control: 5 μL of 500 mM EDTA) into desired wells respectively; • Add 10 μL of Enzyme/Substrate stock into each well; • Add 10 μL of ATP Diluents to initiate the enzyme reaction and vortex the plate immediately on a plate shaker; • For the wells to make standard curve, add 5 μL of 5% DMSO, 10 μL of assay buffer and 10 μL of ATP standard curve stock. • Incubate the plate for 45 min at 28° C. on a plate shaker in a low speed. • 4. Stoping Reaction and Detecting ADP • Detection Mix Preparation: The mixture is made by dilution with MilliQ water; as following: ADP Alexa633 tracer (1:100), ADP antibody (1:158), and stop & detect buffer (1:10); • Tracer Only control Preparation: The mixture is made by dilution with MilliQ water; as following: ADP Alexa633 tracer (1:100), and stop & detect buffer (1: 10) • No Tracer control Preparation: stop & detect buffer is diluted with MilliQ water; by 10 fold. • Add 25 μL of detection mix, Tracer Only control and No Tracer control into corresponding wells, respectively; • Incubate at 28° C. for 1 h, on a plate shaker in a low speed; • Measure florescence polarization (mP) on TECAN F500. Excitation wavelength: 610 nm, Emission wavelength: 670 nm. • 5. Data Analysis
(§1) [formula] Note: • [ADP] in Compound well represents the ADP concentration in test compound well. • [ADP] in Positive control well represents the ADP concentration in 5% DMSO well • Conversion of mP value to ADP concentration is calculated based on the formula which determined by standard curve. And mP value is measured by following the instruction provided by BellBrook Labs. (www.bellbrooklabs.com). • 6. IC50: determined with add-in software for Microsoft Excel, XLfit™ (version 2.0) from ID Business Solutions (Guildford, UK).

[2] = biological target: FGFR3 kinase (Homo sapiens, UniProt P22607); assay: Z-Lyte Kinase Assay of FGFR3; type: biochemical
Protocol: Example 25: Z-Lyte Kinase Assay of FGFR3
• 1. Materials and Reagents:
• 2. Reaction Steps: Plate Map
• 3. […] The final concentrations are 1, 0.33, 0.11, 0.037, 0.012, 0.004, 0.0014, 0.00046 μM, and the final concentration of DMSO is 2%. • 3) Kinase/Peptide Mixture (P/K solution): Prepare Kinase/Peptide Mixture by diluting the kinase to 0.7 μg/ml and the Z-LYTE™ Tyr 4 peptide to 4 μM in 1.33× Kinase Buffer. Mix gently by pipetting. • 4) Phospho-peptide Solution (PP solution): Add 0.4 μl of Z-LYTE™ Tyr 4 Phospho-peptide to 99.6 μl of 1.33× Kinase Buffer. • 5) ATP Solution: Prepare ATP Solution by diluting the 10 mM of ATP in 1.33× Kinase Buffer to 300 uM. • 6) Development Solution: Dilute Development Reagent B with Development Buffer as 1:128. • 4. […] Shake the plate for 30 Sec and centrifuge (1500 rpm, 1 min). • Seal the plate to protect from the light and incubate the plate for 1 hour at RT (25-30° C.). • 2) Development reaction • Add 5 μl of the Development solution to all wells. • Shake the plate for 30 Sec and centrifuge (1500 rpm, 1 min). • Seal the plate to protect from the light and incubate the plate for 1 hour at RT (25-30° C.). • 3) Stop and Read • Add 5 μl of the Stop reagent to all wells. • Shake the plate for 30 Sec and centrifuge (1500 rpm, 1 min). • Measure the value of Coumarin (Ex400 nm, Em445 nm) and fluorescein (Ex400 nm, Em520 nm), respectively. • 5. Data Analysis Emission Ratio(ER)=Coumarin Emission (445 nm)/Fluorescein Emission (520 nm) % Phosphorylation=1−[ER×C3520nm-C3445nm]/[(C1445nm-C3445nm)+ER×(C3520nm−C1520nm)] Inhibition rate (IR)=1−% Photest Cpd/% PhoC2 • 6. IC50 Value: determined with add-in software for Microsoft Excel, XLfit™ (version 2.0) from ID Business Solutions (Guildford, UK)

[3] = biological target: Recombinant human FGFR1 (Homo sapiens, UniProt P11362); assay: Transcreener Kinase Assay of FGFR1; type: biochemical
Protocol: • 1. […] Prepare Solution • Test compounds were solved in DMSO and were diluted with assay buffer to 5 folds of final concentration keeping the DMSO concentration at 5%. Further dilution are needed to make final concentrations are at 1, 0.33, 0.11, 0.037, 0.012, 0.004, 0.0014, 0.0005 μM; (the final concentration of DMSO is 1%). • Enzyme/Substrate stock Preparation: Recombinant human FGFR1 and Poly E4Y are both diluted in assay buffer.
• 3. Enzymatic Reaction • In a 96-well plate, add 5 μL of diluted solution of test compound or control solution. (positive control: 5 μL of 5% DMSO; negative control: 5 μL of 500 mM EDTA) into desired wells respectively; • Add 10 μL of Enzyme/Substrate stock into each well; • Add 10 μL of ATP Diluents to initiate the enzyme reaction and vortex the plate immediately on a plate shaker; • For the wells to make standard curve, add 5 μL of 5% DMSO, 10 μL of assay buffer and 10 μL of ATP standard curve stock. • Incubate the plate for 45 min at 28° C. on a plate shaker in a low speed. • 4. […] Excitation wavelength: 610 nm, Emission wavelength: 670 nm. • 5. Data Analysis
as §1

[4] = system: SNU-16; assay: Cellular Proliferation Assay (Cell Counting Kit-8), SNU-16; type: cell-based; details: Homo sapiens; SNU-16 cells, 72 hours
Protocol: (§2) Example 26: Cellular Proliferation Assay
(§3) • 1. Cell Line • KG-1 (ATCC Accession No. CCL-246), • SNU-16 (ATCC Accession No. CRL-5974), • RT-112 (ECACC Accession No. 85061106) • 2. Assay Protocol • FGFR related cancer cell proliferation is measured in 96-well plates using Cell Counting Kit-8 (Dojindo CK04-13). • Seed 30000 cells/well of KG1, 5000 cells/well of SNU16, and 1000 cells/well of RT112 in a volume of 100 μL/well in growth media. • After 24 hours, dilute the test compound to 10, 3.3, 1.1, 0.37, 0.12, 0.04, 0.013, 0.004 μM, keeping the DMSO concentration at 5%. • Add 10 μL of 8-point compound series to the wells of culturing cells. • Incubate at 37° C. and 5% CO2 for 72 hours • Add 10 μL/well of CCkit8 and incubate at 37° C. and 5% CO2 for an hour • Detect the optical density of each well at 450 nm on Labsystems Multiskan K3. • 3. Data Analysis
(§4) [formula] Note: • ODcompound well represents the optical density of cells treated with compound. • ODcell well represents the optical density of cells without compounds treatment.(only 0.5% DMSO) • ODcontrol well represents the optical density of culture media background • IC50: determined with add-in software for Microsoft Excel, XLfit™ (version 2.0) from ID Business Solutions (Guildford, UK).

[5] = system: RT-112; assay: Cellular Proliferation Assay (Cell Counting Kit-8), RT-112; type: cell-based; details: Homo sapiens; RT-112 cells, 72 hours
Protocol: as §2, §3, §4

[6] = system: KG-1; assay: Cellular Proliferation Assay (Cell Counting Kit-8), KG-1; type: cell-based; details: Homo sapiens; KG-1 cells, 72 hours; read-out: KG1 IC50
Protocol: as §2, §3, §4

Sequence of FGFR3 kinase (P22607 23-806): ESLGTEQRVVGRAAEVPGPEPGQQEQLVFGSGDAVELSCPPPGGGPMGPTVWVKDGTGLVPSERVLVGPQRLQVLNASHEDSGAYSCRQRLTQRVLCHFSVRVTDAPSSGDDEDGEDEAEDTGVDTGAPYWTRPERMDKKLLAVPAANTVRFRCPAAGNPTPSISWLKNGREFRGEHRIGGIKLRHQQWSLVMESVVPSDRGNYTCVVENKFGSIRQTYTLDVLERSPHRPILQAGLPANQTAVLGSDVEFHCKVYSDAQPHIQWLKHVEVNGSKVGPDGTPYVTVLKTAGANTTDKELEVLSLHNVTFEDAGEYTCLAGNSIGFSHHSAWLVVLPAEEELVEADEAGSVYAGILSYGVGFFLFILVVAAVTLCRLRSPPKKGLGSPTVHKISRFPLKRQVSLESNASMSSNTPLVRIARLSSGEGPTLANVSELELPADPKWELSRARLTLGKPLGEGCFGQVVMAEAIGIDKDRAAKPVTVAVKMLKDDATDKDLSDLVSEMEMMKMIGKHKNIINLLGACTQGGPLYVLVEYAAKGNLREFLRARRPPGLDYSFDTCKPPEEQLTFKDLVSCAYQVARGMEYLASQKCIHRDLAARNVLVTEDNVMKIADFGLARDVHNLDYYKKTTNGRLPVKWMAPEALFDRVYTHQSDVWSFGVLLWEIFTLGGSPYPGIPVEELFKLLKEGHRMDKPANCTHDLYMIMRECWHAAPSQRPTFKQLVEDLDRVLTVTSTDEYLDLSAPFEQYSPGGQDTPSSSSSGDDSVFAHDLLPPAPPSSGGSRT
Sequence of Recombinant human FGFR2 (P21802 22-821): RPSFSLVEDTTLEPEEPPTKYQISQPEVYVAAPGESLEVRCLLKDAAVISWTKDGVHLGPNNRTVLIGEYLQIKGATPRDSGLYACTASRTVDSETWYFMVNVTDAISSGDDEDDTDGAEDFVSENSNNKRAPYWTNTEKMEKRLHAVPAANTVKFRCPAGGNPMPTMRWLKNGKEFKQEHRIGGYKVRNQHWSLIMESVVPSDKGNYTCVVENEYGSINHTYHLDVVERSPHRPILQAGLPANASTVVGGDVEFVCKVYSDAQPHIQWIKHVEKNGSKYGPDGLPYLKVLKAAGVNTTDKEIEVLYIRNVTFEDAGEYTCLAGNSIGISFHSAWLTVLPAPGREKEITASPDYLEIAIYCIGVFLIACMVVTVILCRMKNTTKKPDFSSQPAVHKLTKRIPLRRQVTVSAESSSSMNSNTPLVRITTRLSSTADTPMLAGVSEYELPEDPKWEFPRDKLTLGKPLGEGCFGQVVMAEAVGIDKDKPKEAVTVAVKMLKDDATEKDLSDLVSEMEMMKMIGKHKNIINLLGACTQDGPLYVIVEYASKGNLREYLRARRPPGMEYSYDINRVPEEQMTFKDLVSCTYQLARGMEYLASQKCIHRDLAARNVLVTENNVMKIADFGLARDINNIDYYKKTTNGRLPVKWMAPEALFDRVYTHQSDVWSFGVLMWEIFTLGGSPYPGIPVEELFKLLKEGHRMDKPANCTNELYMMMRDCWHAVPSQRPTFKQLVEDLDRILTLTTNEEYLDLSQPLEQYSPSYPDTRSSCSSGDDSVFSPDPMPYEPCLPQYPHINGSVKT
Sequence of Recombinant human FGFR1 (P11362 22-822): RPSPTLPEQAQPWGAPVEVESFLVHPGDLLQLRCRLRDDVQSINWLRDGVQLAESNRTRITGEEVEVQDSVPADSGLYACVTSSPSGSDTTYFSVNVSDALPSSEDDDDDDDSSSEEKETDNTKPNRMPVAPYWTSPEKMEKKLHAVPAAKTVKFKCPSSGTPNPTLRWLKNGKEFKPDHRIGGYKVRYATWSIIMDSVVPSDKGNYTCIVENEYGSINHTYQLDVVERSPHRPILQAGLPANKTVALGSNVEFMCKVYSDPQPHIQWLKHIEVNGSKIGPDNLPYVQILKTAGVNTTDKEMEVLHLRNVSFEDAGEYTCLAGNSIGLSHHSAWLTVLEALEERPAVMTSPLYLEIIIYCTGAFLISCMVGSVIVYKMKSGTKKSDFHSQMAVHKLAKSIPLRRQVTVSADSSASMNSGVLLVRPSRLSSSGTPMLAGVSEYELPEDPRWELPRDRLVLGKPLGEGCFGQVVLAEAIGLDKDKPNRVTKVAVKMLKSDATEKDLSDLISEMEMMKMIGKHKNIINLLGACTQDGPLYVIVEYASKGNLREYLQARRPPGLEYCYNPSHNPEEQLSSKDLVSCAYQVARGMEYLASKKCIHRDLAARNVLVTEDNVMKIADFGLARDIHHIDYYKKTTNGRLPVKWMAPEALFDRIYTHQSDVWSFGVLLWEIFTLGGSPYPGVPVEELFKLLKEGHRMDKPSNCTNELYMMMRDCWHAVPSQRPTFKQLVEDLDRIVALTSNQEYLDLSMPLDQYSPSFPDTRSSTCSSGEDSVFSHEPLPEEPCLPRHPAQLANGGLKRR

Compound | pIC50 ([1]; read-out: FGFR2 (FP) IC50) | pIC50 [2] | pIC50 ([3]; read-out: FGFR1 (FP) IC50) | other results
CNC(=O)c1cc(COc2cnc(Nc3ccc(C4CCNCC4)c(OC)c3)nc2)c(F)c(OC)c1 [Compound 258] | 7.82 | 7.77 | 7.55 | –
CCN1CC[C@H](n2cc(Nc3ncc(CCc4cc(C(=O)NC)cc(OC)c4F)cn3)cn2)C1 [Compound 191] | 7.06 | 6.88 | 7.00 | –
CCN1CCN(c2ccc(Nc3ncc(CCc4cc(C(=O)NC)cc(OC)c4F)cn3)cc2OC)CC1 [Compound 157] | 8.30 | 8.22 | 8.15 | –
CNC(=O)c1cc(COc2cnc(Nc3cnn(C[C@H](O)CO)c3)nc2)c(F)c(OC)c1 [Compound 220] | 8.00 | 8.10 | 7.77 | –
CNC(=O)c1cc(CCc2cnc(Nc3cnn(CC(F)(F)F)c3)nc2)c(F)c(OC)c1 [Compound 35] | 8.00 | – | – | –
CNC(=O)c1cc(CCc2cnc(Nc3cnn([C@H]4CCOC4)c3)nc2)c(F)c(OC)c1 [Compound 137] | 8.30 | 7.89 | 8.05 | pIC50 [4]: 7.74
CNC(=O)c1cc(CCc2cnc(Nc3cnn([C@@H]4CCOC4)c3)nc2)c(F)c(OC)c1 [Compound 136] | 8.15 | – | 8.00 | pIC50 [5]: 6.78; pIC50 [6]: 7.54
CNC(=O)c1cc(COc2cnc(Nc3ccc(C4CCNCC4)nc3)nc2)c(F)c(OC)c1 [Compound 236] | 7.85 | 8.05 | 7.55 | –
CNC(=O)c1cc(COc2cnc(Nc3ccc(N4CCN(C5CC5)CC4)c(OC)c3)nc2)c(F)c(OC)c1 [Compound 294] | – | – | – | pIC50 ([1]; FP): 8.22; pIC50 ([2]; Z-lyte): 8.30; pIC50 ([3]; FP): 7.85
CNC(=O)c1cc(COc2cnc(Nc3ccc(N4C[C@@H](C)N[C@@H](C)C4)nc3)nc2)c(F)c(OC)c1 [Compound 257] | – | – | – | pIC50 [6]: 6.99
